# Experimental data from US6288091A, “Antiherpes virus compounds and methods for their preparation and use” (Boehringer Ingelheim Ltd., priority 1999, dated 2001).
# Read-outs that look alike come from different tables or passages of the source.
# How the values were obtained:
# HSV-1 helicase-primase = biological target: T1, HSV-1 helicase-primase (Human herpesvirus 1, UniProt P10189+P10236); experiment: HSV-1 DNA-dependent ATPase assay (inhibition of HSV-1 helicase-primase); assay type: biochemical
# T1 construct: made in house; host or cells: Sf21 insect cells triply infected with recombinant baculoviruses (UL5, UL8, UL52)
# T1 sequence (P10192 whole entry): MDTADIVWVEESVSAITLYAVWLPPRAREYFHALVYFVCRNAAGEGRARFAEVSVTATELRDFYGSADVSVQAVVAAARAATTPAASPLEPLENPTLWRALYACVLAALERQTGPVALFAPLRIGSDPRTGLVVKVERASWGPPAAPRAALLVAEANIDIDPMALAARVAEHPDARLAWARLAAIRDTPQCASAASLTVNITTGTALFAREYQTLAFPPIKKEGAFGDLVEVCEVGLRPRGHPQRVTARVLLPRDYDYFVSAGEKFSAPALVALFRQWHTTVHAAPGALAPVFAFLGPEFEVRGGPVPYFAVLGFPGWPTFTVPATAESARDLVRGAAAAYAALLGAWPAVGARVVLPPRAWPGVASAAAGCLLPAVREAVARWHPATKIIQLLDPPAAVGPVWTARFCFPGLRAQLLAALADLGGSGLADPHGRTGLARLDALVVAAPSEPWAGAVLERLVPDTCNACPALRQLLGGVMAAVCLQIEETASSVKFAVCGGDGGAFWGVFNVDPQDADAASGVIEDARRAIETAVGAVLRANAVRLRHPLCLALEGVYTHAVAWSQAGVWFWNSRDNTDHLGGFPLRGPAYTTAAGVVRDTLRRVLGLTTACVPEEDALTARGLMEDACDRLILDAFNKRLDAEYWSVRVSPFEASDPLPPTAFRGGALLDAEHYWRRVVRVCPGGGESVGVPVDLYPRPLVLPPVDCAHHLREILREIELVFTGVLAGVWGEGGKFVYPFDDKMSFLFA
# T1 sequence (P10236 whole entry): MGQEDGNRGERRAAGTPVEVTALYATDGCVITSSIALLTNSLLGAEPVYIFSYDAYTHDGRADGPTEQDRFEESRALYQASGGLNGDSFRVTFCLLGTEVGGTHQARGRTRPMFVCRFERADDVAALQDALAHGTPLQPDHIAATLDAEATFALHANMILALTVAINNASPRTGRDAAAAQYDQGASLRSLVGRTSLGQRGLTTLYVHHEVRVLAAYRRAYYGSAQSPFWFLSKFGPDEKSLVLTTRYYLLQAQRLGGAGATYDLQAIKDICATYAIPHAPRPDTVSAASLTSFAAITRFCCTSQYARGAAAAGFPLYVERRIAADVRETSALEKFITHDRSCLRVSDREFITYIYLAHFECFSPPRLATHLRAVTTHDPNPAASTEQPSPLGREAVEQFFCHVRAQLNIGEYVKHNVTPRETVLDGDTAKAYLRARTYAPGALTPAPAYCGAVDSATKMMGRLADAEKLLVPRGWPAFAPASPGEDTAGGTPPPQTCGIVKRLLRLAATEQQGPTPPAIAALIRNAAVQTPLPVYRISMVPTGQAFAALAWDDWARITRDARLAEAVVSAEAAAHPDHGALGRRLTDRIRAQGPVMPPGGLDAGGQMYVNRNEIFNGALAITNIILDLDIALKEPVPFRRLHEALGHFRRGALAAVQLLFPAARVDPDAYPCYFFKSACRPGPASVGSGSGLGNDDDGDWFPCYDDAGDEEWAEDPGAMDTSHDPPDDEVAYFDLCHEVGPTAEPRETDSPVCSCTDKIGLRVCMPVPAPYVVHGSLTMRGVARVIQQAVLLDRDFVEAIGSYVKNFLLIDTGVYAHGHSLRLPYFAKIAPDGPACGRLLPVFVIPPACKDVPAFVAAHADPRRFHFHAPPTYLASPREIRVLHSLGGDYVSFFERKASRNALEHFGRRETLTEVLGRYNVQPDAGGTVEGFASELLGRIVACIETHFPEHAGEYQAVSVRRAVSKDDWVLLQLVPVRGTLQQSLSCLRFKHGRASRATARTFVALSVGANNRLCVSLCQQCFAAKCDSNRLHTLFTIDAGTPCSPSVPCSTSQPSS
# T1 sequence (P10189 whole entry): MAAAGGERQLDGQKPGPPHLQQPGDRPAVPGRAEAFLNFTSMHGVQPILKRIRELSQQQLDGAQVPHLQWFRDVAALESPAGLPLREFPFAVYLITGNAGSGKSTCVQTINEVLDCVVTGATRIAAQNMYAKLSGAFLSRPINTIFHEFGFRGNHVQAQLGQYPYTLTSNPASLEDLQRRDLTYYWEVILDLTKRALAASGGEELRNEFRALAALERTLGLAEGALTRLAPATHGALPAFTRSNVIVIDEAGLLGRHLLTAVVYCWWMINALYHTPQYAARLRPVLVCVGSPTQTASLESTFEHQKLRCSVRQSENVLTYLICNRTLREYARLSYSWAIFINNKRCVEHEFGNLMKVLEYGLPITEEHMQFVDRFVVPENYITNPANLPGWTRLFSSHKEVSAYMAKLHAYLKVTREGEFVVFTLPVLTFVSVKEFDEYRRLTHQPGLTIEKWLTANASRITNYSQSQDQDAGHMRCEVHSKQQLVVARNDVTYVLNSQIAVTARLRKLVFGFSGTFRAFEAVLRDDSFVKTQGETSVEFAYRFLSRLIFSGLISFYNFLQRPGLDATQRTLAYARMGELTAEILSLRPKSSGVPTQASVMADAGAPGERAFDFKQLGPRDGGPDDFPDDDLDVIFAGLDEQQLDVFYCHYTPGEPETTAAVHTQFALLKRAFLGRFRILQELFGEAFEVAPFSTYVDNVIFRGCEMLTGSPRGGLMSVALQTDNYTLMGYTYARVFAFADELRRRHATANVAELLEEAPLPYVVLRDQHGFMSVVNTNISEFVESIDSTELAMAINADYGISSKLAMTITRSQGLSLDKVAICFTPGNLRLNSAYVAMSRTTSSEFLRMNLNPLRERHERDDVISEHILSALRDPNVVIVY
# In short: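 ATP hydrolysis was measured as inorganic phosphate (malachite green/molybdate, 650 nm) after 20 min at 34°. Reaction: 3 μg/mL purified Sf21-expressed UL5/UL8/UL52 helicase-primase, 25 μM single-stranded M13 DNA hybridized to 68-mer, 4 mM ATP, pH 7.5 HEPES buffer, 3.3% DMSO. Net absorbance change with and without inhibitor gave DNA-dependent ATPase activity.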
# HCMV (strain AD169) = experiment: Inhibition of HCMV replication, ELISA assay (Hs-68 cells); assay type: cell-based, Human Cytomegalovirus (HCMV); details: read-out: ELISA CMV EC50
# In short: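 EC50 derived from % inhibition of viral replication, read as p28 late-protein ELISA signal (mAb UL99, peroxidase/OPD, 450 nm) on fixed cells. Read-out came 8 days post-infection at 37 °C in DMEM with 5% FBS plus compound, after 2 h adsorption of AD169 at MOI 0.01 PFU/cell onto near-confluent Hs-68 cells.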
# [1] = Human betaherpesvirus 5, AD169, Hs68, Group 1 Table 3 entries
# [2] = Group 1 Table 2 entries (Q = CH2)
# [3] = Human betaherpesvirus 5, AD169, Hs68, Group 1 Table 2 entries
# [4] = Human betaherpesvirus 5, AD169, Hs68, Group 1 Table 1 entries
# [5] = Human betaherpesvirus 5, AD169, Hs68, Group 1 Table 5 entries
structure (smiles),measurement,setting,value
CN(C(=O)CN(Cc1ccccc1)C(=O)C1CCCCC1)c1ccc(-c2csc(N)n2)cc1 [Example 1],IC50,HSV-1 helicase-primase; Group 1 Table 3 entries,53 nM
same,EC50,HCMV (strain AD169); [1],> 46000 nM
Nc1nc(-c2ccc(NC(=O)CCNCc3ccccc3)cc2)cs1 [Example 1],IC50,HSV-1 helicase-primase; [2],21000 nM
same,EC50,HCMV (strain AD169); [3],3200 nM
Nc1nc(-c2ccc(NC(=O)CNCc3ccccc3)cc2)cs1 [Example 1],IC50,HSV-1 helicase-primase; Group 1 Table 1 entries,6400 nM
same,EC50,HCMV (strain AD169); [4],25000 nM
Nc1nc(-c2ccc(NC(=O)CCN(Cc3ccccc3)Cc3ccccc3)cc2)cs1 [Example 2],IC50,HSV-1 helicase-primase; [2],1200 nM
same,EC50,HCMV (strain AD169); [3],550 nM
CC(C)(C)OC(=O)N[C@@H](Cc1ccccc1)C(=O)Nc1ccc(-c2csc(N)n2)cc1 [Example 3],IC50,HSV-1 helicase-primase; Group 1 Table 5 entries,46 nM
same,EC50,HCMV (strain AD169); [5],140 nM
Nc1nc(-c2ccc(NC(=O)CCN(Cc3ccccc3)C(=O)c3ccccc3)cc2)cs1 [Example 3],IC50,HSV-1 helicase-primase; [2],2100 nM
same,EC50,HCMV (strain AD169); [3],1200 nM
CC(C)(C)OC(=O)N[C@H](Cc1ccccc1)C(=O)Nc1ccc(-c2csc(N)n2)cc1 [Example 4],IC50,HSV-1 helicase-primase; Group 1 Table 5 entries,1500 nM
same,EC50,HCMV (strain AD169); [5],250 nM
O=C(CN(Cc1ccccc1)C(=O)C1CCCCC1)Nc1ccc(-c2cscn2)cc1 [Example 5],IC50,HSV-1 helicase-primase; Group 1 Table 3 entries,100 nM
same,EC50,HCMV (strain AD169); [1],> 63000 nM
CNc1nc(-c2ccc(NC(=O)CN(Cc3ccccc3)C(=O)c3ccccc3)cc2)cs1 [Example 6],IC50,HSV-1 helicase-primase; Group 1 Table 3 entries,330 nM
same,EC50,HCMV (strain AD169); [1],51000 nM
Nc1nc(-c2ccc(NC(=O)[C@H](Cc3ccccc3)NCc3ccccc3)cc2)cs1 [Example 6],IC50,HSV-1 helicase-primase; Group 1 Table 5 entries,1060 nM
same,EC50,HCMV (strain AD169); [5],140 nM
CN[C@@H](Cc1ccccc1)C(=O)Nc1ccc(-c2csc(N)n2)cc1 [Example 8],IC50,HSV-1 helicase-primase; Group 1 Table 5 entries,45000 nM
same,EC50,HCMV (strain AD169); [5],1100 nM
Nc1nc(-c2ccc(NC(=O)[C@@H](Cc3ccccc3)N(Cc3ccccc3)C(=O)C3CCCCC3)cc2)cs1 [Example 9],IC50,HSV-1 helicase-primase; Group 1 Table 5 entries,52 nM
same,EC50,HCMV (strain AD169); [5],4000 nM
CN(C)c1nc(-c2ccc(NC(=O)CN(Cc3ccccc3)C(=O)c3ccccc3)cc2)cs1 [Example 11],IC50,HSV-1 helicase-primase; Group 1 Table 3 entries,> 50000 nM
same,EC50,HCMV (strain AD169); [1],3500 nM
C[C@@H](NCC(=O)Nc1ccc(-c2csc(N)n2)cc1)c1ccccc1 [Example 11],IC50,HSV-1 helicase-primase; Group 1 Table 1 entries,3700 nM
same,EC50,HCMV (strain AD169); [4],19000 nM
Nc1nc(-c2ccc(NC(=O)CCN(C(=O)c3cccnc3)C3Cc4ccccc4C3)cc2)cs1 [Example 12],IC50,HSV-1 helicase-primase; [2],10000 nM
same,EC50,HCMV (strain AD169); [3],6500 nM
CC(C)(C)OC(=O)N(CCC(=O)Nc1ccc(-c2csc(N)n2)cc1)C1Cc2ccccc2C1 [Example 14],IC50,HSV-1 helicase-primase; [2],1700 nM
same,EC50,HCMV (strain AD169); [3],200 nM
CC(C)(C)OC(=O)N(CCC(=O)Nc1ccc(-c2csc(N)n2)cc1)Cc1ccccc1 [Example 15],IC50,HSV-1 helicase-primase; [2],280 nM
same,EC50,HCMV (strain AD169); [3],11300 nM
CN(CC(=O)Nc1ccc(-c2csc(N)n2)cc1)Cc1ccccc1 [Example 15],IC50,HSV-1 helicase-primase; Group 1 Table 1 entries,3300 nM
same,EC50,HCMV (strain AD169); [4],6200 nM
Nc1nc(-c2ccc(NC(=O)CN(Cc3ccccc3)Cc3ccccc3)cc2)cs1 [Example 16],IC50,HSV-1 helicase-primase; Group 1 Table 1 entries,550 nM
same,EC50,HCMV (strain AD169); [4],3800 nM
Nc1nc(-c2ccc(NC(=O)CCN(Cc3ccccc3)CC3CCCCC3)cc2)cs1 [Example 17],IC50,HSV-1 helicase-primase; [2],760 nM
same,EC50,HCMV (strain AD169); [3],4700 nM
CC(=O)Nc1nc(-c2ccc(NC(=O)CN(Cc3ccccc3)C(C)=O)cc2)cs1 [Example 18],IC50,HSV-1 helicase-primase; Group 1 Table 3 entries,> 100000 nM
same,EC50,HCMV (strain AD169); [1],2800 nM
C[C@@H](c1ccccc1)N(CCC(=O)Nc1ccc(-c2csc(N)n2)cc1)C(=O)OC(C)(C)C [Example 18],IC50,HSV-1 helicase-primase; [2],1000 nM
same,EC50,HCMV (strain AD169); [3],2900 nM
C[C@@H](c1ccccc1)N(CCC(=O)Nc1ccc(-c2csc(N)n2)cc1)Cc1ccccc1 [Example 19],IC50,HSV-1 helicase-primase; [2],460 nM
same,EC50,HCMV (strain AD169); [3],3100 nM
CC(C)c1nc(-c2ccc(NC(=O)CN(Cc3ccccc3)C(=O)c3ccccc3)cc2)cs1 [Example 20],IC50,HSV-1 helicase-primase; Group 1 Table 3 entries,> 50000 nM
same,EC50,HCMV (strain AD169); [1],3300 nM
C[C@H](NCCC(=O)Nc1ccc(-c2csc(N)n2)cc1)c1ccccc1 [Example 20],IC50,HSV-1 helicase-primase; [2],7200 nM
same,EC50,HCMV (strain AD169); [3],800 nM
CC(C)(C)OC(=O)N(CCC(=O)Nc1ccc(-c2csc(N)n2)cc1)CC1CCCCC1 [Example 21],IC50,HSV-1 helicase-primase; [2],28 nM
same,EC50,HCMV (strain AD169); [3],4200 nM
Nc1nc(-c2ccc(NC(=O)CN(Cc3ccccc3)C(=O)c3ccccc3)cc2)cs1 [Example 23],IC50,HSV-1 helicase-primase; Group 1 Table 1 entries,72 nM
same,EC50,HCMV (strain AD169); [4],12000 nM
